Test results as given in US20060009493A1, “Indolinone hydrazides as c-Met inhibitors” (Sugen, Inc., priority 2003, published 2006).

target: T1, GST fusion protein containing the Met kinase domain (Homo sapiens, UniProt P08581); assay: MET Transphosphorylation Assay (ELISA, poly(Glu,Tyr) 4:1 substrate); format: biochemical; conditions: met transphosphorylation of poly(glutamic acid:tyrosine 4:1) substrate; two values in a cell separated by '/'
T1 construct: Purified GST fusion protein containing the Met kinase domain, Sugen, Inc
T1 sequence (P08581 1078-1345 limits assumed): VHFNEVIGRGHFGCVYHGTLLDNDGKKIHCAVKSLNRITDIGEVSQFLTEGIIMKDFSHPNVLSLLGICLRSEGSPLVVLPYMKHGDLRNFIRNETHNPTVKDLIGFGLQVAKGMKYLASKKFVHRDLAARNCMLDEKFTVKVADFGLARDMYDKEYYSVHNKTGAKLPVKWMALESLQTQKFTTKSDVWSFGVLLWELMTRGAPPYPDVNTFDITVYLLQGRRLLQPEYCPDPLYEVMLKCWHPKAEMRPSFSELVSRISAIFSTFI
Procedure, shortened: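 Poly(Glu-Tyr)-coated wells received the GST-Met kinase domain (10 ng/well) with compound in DMSO for 15 minutes. The reaction was started with ATP/MnCl2 in HEPES pH 7.5 buffer with vanadate, run 5 minutes, and stopped with EDTA. Phosphotyrosine was detected by anti-pTyr antibody, HRP secondary and ABTS/H2O2.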

Structure (SMILES) | IC50
O=C(Cc1cc(=O)[nH]c(=O)[nH]1)N/N=C1\C(=O)Nc2ccccc21 [II-80, (2,6-Dioxo-1,2,3,6-tetrahydro-pyrimidin-4-yl)-acetic acid [(3Z)-2-oxo-1,2-dihydro-indol-3-ylidene)-hydrazide] | > 20000 nM
O=C(Cc1cc(=O)[nH]c(=O)[nH]1)N/N=C1\C(=O)Nc2c(Cl)ccc(Cl)c21 [II-82, (2,6-Dioxo-1,2,3,6-tetrahydro-pyrimidin-4-yl)-acetic acid [(3Z)-4,7-dichloro-2-oxo-1,2-dihydro-indol-3-ylidene]-hydrazide] | > 20000 nM
O=C(CCc1ccccc1)N/N=C1\C(=O)Nc2c(Cl)ccc(Cl)c21 [II-84, 3-Phenyl-propionic acid [(3Z)-4,7-dichloro-2-oxo-1,2-dihydro-indol-3-ylidene]-hydrazide] | > 20000 nM
COc1ccc(CCC(=O)N/N=C2\C(=O)Nc3c(Cl)ccc(Cl)c32)cc1 [II-86, 3-(4-Methoxy-phenyl)-propionic acid [(3Z)-4,7-dichloro-2-oxo-1,2-dihydro-indol-3-ylidene]-hydrazide] | 2000 nM
O=C(Cc1cc(=O)[nH]cn1)N/N=C1\C(=O)Nc2ccccc21 [II-88, (6-Oxo-1,6-dihydro-pyrimidin-4-yl)-acetic acid [(3Z)-2-oxo-1,2-dihydro-indol-3-ylidene]-hydrazide] | 5990 nM
O=C(Cc1cnc(=O)[nH]c1)N/N=C1\C(=O)Nc2ccccc21 [II-89, (2-Oxo-1,2-dihydro-pyrimidin-5-yl)-acetic acid [(3Z)-2-oxo-1,2-dihydro-indol-3-ylidene]-hydrazide] | 12600 nM
O=C(Cc1c[nH]c(=O)[nH]c1=O)N/N=C1\C(=O)Nc2ccccc21 [II-90, (2,4-Dioxo-1,2,3,4-tetrahydro-pyrimidin-5-yl)-acetic acid [(3Z)-2-oxo-1,2-dihydro-indol-3-ylidene]-hydrazide] | > 20000 nM
CC(C)(C(=O)N/N=C1\C(=O)Nc2c(Cl)ccc(Cl)c21)c1ccc(Cl)cc1 [II-91, 2-(4-Chloro-phenyl)-2-methyl-propionic acid [(3Z)-4,7-dichloro-2-oxo-1,2-dihydro-indol-3-ylidene]-hydrazide] | > 20000 nM
CC(C)(C(=O)N/N=C1\C(=O)Nc2ccc(C(=O)O)c(Cl)c21)c1ccc(Cl)cc1 [II-92, (3Z)-4-Chloro-3-{[2-(4-chloro-phenyl)-2-methyl-propionyl]-hydrazono}-2-oxo-2,3-dihydro-1H-indole-5-carboxylic acid] | > 20000 nM
Cc1ccc(C)c2c1NC(=O)/C2=N\NC(=O)CCc1ccc(N)cc1 [II-93, 3-(4-Amino-phenyl)-propionic acid [(3Z)-4,7-dimethyl-2-oxo-1,2-dihydro-indol-3-ylidene]-hydrazide] | > 20000 nM
O=C(Cc1cnc(=O)[nH]c1)N/N=C1\C(=O)Nc2c(Cl)ccc(Cl)c21 [II-96, (2-Oxo-1,2-dihydro-pyrimidin-5-yl)-acetic acid [(3Z)-4,7-dichloro-2-oxo-1,2-dihydro-indol-3-ylidene]-hydrazide] | 3080 nM
COc1cc(CC(=O)N/N=C2\C(=O)Nc3c(Cl)ccc(Cl)c32)cc(OC)c1O [II-100, (4-Hydroxy-3,5-dimethoxy-phenyl)-acetic acid [(3Z)-4,7-dichloro-2-oxo-1,2-dihydro-indol-3-ylidene)-hydrazide] | > 20000 nM
COc1ccc(CC(=O)N/N=C2\C(=O)Nc3c(Cl)ccc(Cl)c32)cc1C#N [II-106, (3-Cyano-4-methoxy-phenyl)-acetic acid [(3Z)-4,7-dichloro-2-oxo-1,2-dihydro-indol-3-ylidene]-hydrazide] | > 20000 nM
COc1ccc(CC(=O)N/N=C2\C(=O)Nc3c(C)ccc(C)c32)cc1C#N [II-107, (3-Cyano-4-methoxy-phenyl)-acetic acid [(3Z)-4,7-dimethyl-2-oxo-1,2-dihydro-indol-3-ylidene]-hydrazide] | > 20000 nM
N#Cc1cc(CC(=O)N/N=C2\C(=O)Nc3ccccc32)ccc1O [II-108, (3-Cyano-4-hydroxy-phenyl)-acetic acid [(3Z)-2-oxo-1,2-dihydro-indol-3-ylidene)-hydrazide] | 11900 nM
COc1ccc(CC(=O)N/N=C2\C(=O)Nc3ccc(C(=O)O)c(Cl)c32)cc1C#N [II-110, (3Z)-4-Chloro-3-{[2-(3-cyano-4-methoxy-phenyl)-acetyl]-hydrazono}-2-oxo-2,3-dihydro-1H-indole-5-carboxylic acid] | > 20000 nM
N#Cc1cc(CC(=O)N/N=C2\C(=O)Nc3ccc(C(=O)O)c(Cl)c32)ccc1O [II-111, (3Z)-4-Chloro-3-{[2-(3-cyano-4-hydroxy-phenyl)-acetyl]-hydrazono}-2-oxo-2,3-dihydro-1H-indole-5-carboxylic acid] | 3340 nM
Cc1ccc(C)c2c1NC(=O)/C2=N\NC(=O)Cc1ccc(O)c(C#N)c1 [II-112, (3-Cyano-4-hydroxy-phenyl)-acetic acid [(3Z)-4,7-dimethyl-2-oxo-1,2-dihydro-indol-3-ylidene]-hydrazide] | 2500 nM

Molecules with a lower IC50, results first:

IC50 | Structure (SMILES)
110 nM | Nc1cccc(CC(=O)N/N=C2\C(=O)Nc3c(Cl)ccc(Cl)c32)c1 [II-78, (3-Amino-phenyl)-acetic acid [(3Z)-4,7-dichloro-2-oxo-1,2-dihydro-indol-3-ylidene]-hydrazide]
150 nM | CCC(C(=O)N/N=C1\C(=O)Nc2c(Cl)ccc(Cl)c21)c1ccc(OC)cc1 (stereo not shown) [II-79, 2-(4-Methoxy-phenyl)-butyric acid [(3Z)-4,7-dichloro-2-oxo-1,2-dihydro-indol-3-ylidene)-hydrazide]
59 nM | Cc1ccc(C)c2c1NC(=O)/C2=N\NC(=O)CCc1ccc(O)cc1 [II-81, 3-(4-Hydroxy-phenyl)-propionic acid [(3Z)-4,7-dimethyl-2-oxo-1,2-dihydro-indol-3-ylidene]-hydrazide]
81 nM | O=C(CCc1ccc(O)cc1)N/N=C1\C(=O)Nc2cccc(Cl)c21 [II-83, 3-(4-Hydroxy-phenyl)-propionic acid [(3Z)-4-chloro-2-oxo-1,2-dihydro-indol-3-ylidene]-hydrazide]
91 nM | Cc1ccc(C)c2c1NC(=O)/C2=N\NC(=O)Cc1ccccc1 [II-85, Phenyl-acetic acid [(3Z)-4,7-dimethyl-2-oxo-1,2-dihydro-indol-3-ylidene]-hydrazide]
630 nM | O=C(Cc1cc(O)[nH]n1)N/N=C1\C(=O)Nc2c(Cl)ccc(Cl)c21 [II-87, (5-Hydroxy-1H-pyrazol-3-yl)-acetic acid [(3Z)-4,7-dichloro-2-oxo-1,2-dihydro-indol-3-ylidene]-hydrazide]
21 nM | COc1ccc2c(c1Cl)/C(=N/NC(=O)Cc1ccc(O)cc1)C(=O)N2 [II-94, (4-Hydroxy-phenyl)-acetic acid [(3Z)-4-chloro-5-methoxy-2-oxo-1,2-dihydro-indol-3-ylidene]-hydrazide]
32 nM | COc1cc(Cl)c2c(c1Cl)/C(=N/NC(=O)Cc1ccc(O)cc1)C(=O)N2 [II-95, (4-Hydroxy-phenyl)-acetic acid [(3Z)-4,7-dichloro-5-methoxy-2-oxo-1,2-dihydro-indol-3-ylidene]-hydrazide]
320 nM | COc1c(O)c2c(c(Cl)c1Cl)NC(=O)/C2=N\NC(=O)Cc1ccc(O)cc1 [II-97, (4-Hydroxy-phenyl)-acetic acid [(3Z)-6,7-dichloro-4-hydroxy-5-methoxy-2-oxo-1,2-dihydro-indol-3-ylidene]-hydrazide]
89 nM | COc1ccc2c(c1)/C(=N/NC(=O)Cc1ccc(O)cc1)C(=O)N2 [II-98, (4-Hydroxy-phenyl)-acetic acid [(3Z)-5-methoxy-2-oxo-1,2-dihydro-indol-3-ylidene]-hydrazide]
45 nM | COc1ccc2c(c1Cl)/C(=N/NC(=O)C(C)c1ccc(O)cc1)C(=O)N2 (stereo not shown) [II-99, 2-(4-Hydroxy-phenyl)-propionic acid [(3Z)-4-chloro-5-methoxy-2-oxo-1,2-dihydro-indol-3-ylidene)-hydrazide]
54 nM | O=C(Cc1ccc(O)c(Br)c1)N/N=C1\C(=O)Nc2ccccc21 [II-101, (3-Bromo-4-hydroxy-phenyl)-acetic acid [(3Z)-2-oxo-1,2-dihydro-indol-3-ylidene]-hydrazide]
190 nM | O=C(Cc1ccc(O)c(Br)c1)N/N=C1\C(=O)Nc2c(Cl)ccc(Cl)c21 [II-102, (3-Bromo-4-hydroxy-phenyl)-acetic acid [(3Z)-4,7-dichloro-2-oxo-1,2-dihydro-indol-3-ylidene]-hydrazide]
180 nM | CC(C(=O)N/N=C1\C(=O)Nc2ccccc21)c1ccc(O)c(Br)c1 (stereo not shown) [II-103, 2-(3-Bromo-4-hydroxy-phenyl)-propionic acid [(3Z)-2-oxo-1,2-dihydro-indol-3-ylidene]-hydrazide]
790 nM | CC(C(=O)N/N=C1\C(=O)Nc2c(Cl)ccc(Cl)c21)c1ccc(O)c(Br)c1 (stereo not shown) [II-104, 2-(3-Bromo-4-hydroxy-phenyl)-propionic acid [(3Z)-4,7-dichloro-2-oxo-1,2-dihydro-indol-3-ylidene]-hydrazide]
420 nM | CC(C(=O)N/N=C1\C(=O)Nc2ccc(O)c(Cl)c21)c1ccc(F)cc1 (stereo not shown) [II-105, 2-(4-Fluoro-phenyl)-propionic acid [(3Z)-4-chloro-5-hydroxy-2-oxo-1,2-dihydro-indol-3-ylidene)-hydrazide]
1620 nM | N#Cc1cc(CC(=O)N/N=C2\C(=O)Nc3c(Cl)ccc(Cl)c32)ccc1O [II-109, (3-Cyano-4-hydroxy-phenyl)-acetic acid [(3Z)4,7-dichloro-2-oxo-1,2-dihydro-indol-3-ylidene)-hydrazide]
47 nM | COc1cc(Cl)c2c(c1Cl)/C(=N/NC(=O)C(C)c1ccc(O)cc1)C(=O)N2 (stereo not shown) [II-113, 2-(4-Hydroxy-phenyl)-propionic acid [(3Z)4,7-dichloro-5-methoxy-2-oxo-1,2-dihydro-indol-3-ylidene)-hydrazide]
200 nM | Cc1ccc(Cl)c2c1NC(=O)/C2=N\NC(=O)C(C)c1ccc(F)cc1 (stereo not shown) [II-114, 2-(4-Fluoro-phenyl)-propionic acid [(3Z)4-chloro-7-methyl-2-oxo-1,2-dihydro-indol-3-ylidene]-hydrazide]
